Laboratory results published in the supplement of paper PMC10307832.

Legend:
Test in all cases: relative viability (nuclei count vs DMSO), 5 days (fraction); higher = more cells survive
Shikonin + OSI-027 = compound: CC(C)=CC[C@@H](O)C1=CC(=O)c2c(O)ccc(O)c2C1=O [Shikonin] + COc1cccc2cc(-c3nc([C@H]4CC[C@H](C(=O)O)CC4)n4ncnc(N)c34)[nH]c12 [OSI-027] (partner 0.5 µM)
How it was run: (§1)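 Relative viability divides the nuclei count in treated wells by that in vehicle wells. Lung cancer cell lines were seeded in 1536-well plates, dosed by pin tool the next day, and fixed and stained after 5 days in one step with final 0.05% Triton X-100, 1% formaldehyde and 1 ug/ml Hoechst. Dosing was a single drug or a fixed anchor-drug dose plus five library-drug doses (not always all listed) in √10 steps, and values are medians of duplicate plates imaged at 4×.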

Shikonin + Crizotinib = compound: CC(C)=CC[C@@H](O)C1=CC(=O)c2c(O)ccc(O)c2C1=O [Shikonin] + C[C@@H](Oc1cc(-c2cnn(C3CCNCC3)c2)cnc1N)c1c(Cl)ccc(F)c1Cl [Crizotinib] (partner 1 µM)
How it was run: as §1

Shikonin + Decitabine = compound: CC(C)=CC[C@@H](O)C1=CC(=O)c2c(O)ccc(O)c2C1=O [Shikonin] + Nc1ncn([C@H]2C[C@H](O)[C@@H](CO)O2)c(=O)n1 [Decitabine] (partner 2 µM)
How it was run: as §1

[1] = compound: CC(C)N(CCCNC(=O)Nc1ccc(C(C)(C)C)cc1)C[C@H]1O[C@@H](n2ccc3c(N)ncnc32)[C@H](O)[C@@H]1O + COc1cccc2cc(-c3nc([C@H]4CC[C@H](C(=O)O)CC4)n4ncnc(N)c34)[nH]c12 [OSI-027] (partner 0.5 µM)
How it was run: as §1

| Cell Line | relative viability (Shikonin + OSI-027; first compound 0.01 µM) | relative viability (Shikonin + OSI-027; first compound 0.1 µM) | relative viability (Shikonin + OSI-027; first compound 0.3162 µM) | relative viability (Shikonin + OSI-027; first compound 1 µM) | relative viability (Shikonin + Crizotinib; first compound 0.01 µM) | relative viability (Shikonin + Crizotinib; first compound 0.1 µM) | relative viability (Shikonin + Crizotinib; first compound 0.3162 µM) | relative viability (Shikonin + Crizotinib; first compound 1 µM) | relative viability (Shikonin + Decitabine; first compound 0.01 µM) | relative viability (Shikonin + Decitabine; first compound 0.1 µM) | relative viability (Shikonin + Decitabine; first compound 0.3162 µM) | relative viability (Shikonin + Decitabine; first compound 1 µM) | relative viability ([1]; first compound 0.08 µM) | relative viability ([1]; first compound 0.253 µM) | relative viability ([1]; first compound 0.8 µM) | relative viability ([1]; first compound 2.53 µM) | relative viability ([1]; first compound 8 µM) |
| --- | --- | --- | --- | --- | --- | --- | --- | --- | --- | --- | --- | --- | --- | --- | --- | --- | --- |
| RERF-LC-KJ | 0.513 | 0.534 | 0.632 | 0.644 | 0.945 | 0.91 | 0.829 | 0.899 | 0.782 | 0.703 | 0.636 | 0.653 | 0.551 | 0.624 | 0.679 | 0.529 | 0.453 |
| NCI-H727 | 0.683 | 0.668 | 0.57 | 0.525 | 1.02 | 0.991 | 0.727 | 0.589 | 0.893 | 1.02 | 0.927 | 0.883 | 0.635 | 0.597 | 0.521 | 0.495 | 0.666 |
| NCI-H1666 | 0.936 | 0.833 | 0.862 | 0.966 | 1.12 | 0.971 | 1.12 | 0.744 | 0.668 | 0.779 | 0.82 | 0.734 | 0.745 | 1.04 | 0.611 | 0.829 | 0.755 |
| NCI-H2087 | 0.602 | 0.616 | 0.66 | 0.502 | 1.07 | 0.781 | 0.923 | 0.824 | 0.283 | 0.263 | 0.278 | 0.294 | 0.443 | 0.707 | 0.402 | 0.653 | 0.586 |
| NCI-H1734 | 0.661 | 0.713 | 0.624 | 0.53 | 0.665 | 0.769 | 0.717 | 0.632 | 0.475 | 0.566 | 0.571 | 0.474 | 0.563 | 0.612 | 0.627 | 0.564 | 0.6 |
| EMC-BAC-2 | 0.38 | 0.399 | 0.39 | 0.386 | 0.771 | 0.715 | 0.815 | 0.866 | 0.964 | 1.07 | 1.13 | 0.956 | 0.384 | 0.485 | 0.42 | 0.412 | 0.355 |
| NCI-H2009 | 0.687 | 0.622 | 0.52 | 0.257 | 1.07 | 1.2 | 0.972 | 0.45 | 0.335 | 0.399 | 0.399 | 0.222 | 0.641 | 0.722 | 0.702 | 0.599 | 0.587 |
| NCI-H647 | 0.712 | 0.631 | 0.666 | 0.602 | 1.13 | 1.29 | 0.931 | 1.01 | 0.364 | 0.504 | 0.346 | 0.328 | 0.511 | 0.579 | – | 0.742 | 0.586 |
| NCI-H661 | 0.685 | 0.774 | 0.782 | 0.842 | 1.24 | 1.11 | 0.967 | 0.957 | 0.51 | 0.552 | 0.572 | 0.529 | 0.719 | 0.775 | 0.68 | 0.714 | 0.683 |
| NCI-H1792 | 0.7 | 0.63 | 0.853 | 0.805 | 1.1 | 0.796 | 1.03 | 1.14 | 0.567 | 0.553 | 0.644 | 0.681 | 0.693 | 0.702 | 0.716 | 0.586 | 0.72 |
| ChaGo-K-1 | 0.598 | 0.654 | 0.665 | 0.662 | 1.07 | 1.19 | 1.11 | 1.21 | 0.521 | 0.529 | 0.513 | 0.567 | 0.525 | 0.616 | 0.471 | 0.628 | 0.585 |
| NCI-H1650 | 0.596 | 0.459 | 0.392 | 0.487 | 1.06 | 0.993 | 1.06 | 0.691 | 0.379 | 0.355 | 0.424 | 0.389 | 0.567 | 0.696 | – | 0.744 | 0.703 |
| NCI-H2023 | 0.394 | 0.367 | 0.443 | 0.408 | 0.767 | 0.583 | 0.667 | 0.604 | 0.201 | 0.251 | 0.236 | 0.225 | 0.375 | 0.501 | 0.414 | 0.392 | 0.353 |
| LOU-NH91 | 0.718 | 0.813 | 0.786 | 0.726 | 0.737 | 0.686 | 0.775 | 0.737 | 0.787 | 0.879 | 0.856 | 0.816 | 0.734 | 0.714 | 0.666 | 0.689 | 0.728 |
| NCI-H3122 | 1.07 | 1.27 | 1.03 | 1.06 | 0.288 | 0.271 | 0.278 | 0.248 | 0.485 | 0.467 | 0.443 | 0.458 | 0.897 | 1.02 | 0.925 | 0.926 | 0.722 |
| LCLC-97TM1 | 0.504 | 0.591 | 0.675 | 0.579 | 0.573 | 0.46 | 0.3 | 0.247 | 0.257 | 0.232 | 0.215 | 0.242 | 0.555 | 0.642 | 0.716 | 0.557 | 0.679 |
| NCI-H650 | 0.612 | 0.555 | 0.592 | 0.568 | 0.818 | – | 0.643 | 0.804 | 0.295 | 0.314 | 0.334 | 0.27 | 0.485 | 0.63 | 0.602 | 0.468 | 0.504 |
| PC-14 | 0.921 | 0.556 | 1.06 | 0.9 | 0.984 | 1.02 | 0.841 | 1.03 | 0.216 | 0.278 | 0.413 | 0.161 | 0.826 | 0.802 | 0.786 | 0.872 | 0.745 |
